Results from patent US20240208965A1, “HETEROARYL ALKYLENE SUBSTITUTED 2-OXOQUINAZOLINE DERIVATIVES AS METHIONINE ADENOSYLTRANSFERASE 2A INHIBITORS” (IDEAYA BIOSCIENCES, INC., priority 2020, published 2024).

Target: T1, Human MAT2A (Homo sapiens, UniProt P31153)
T1 construct: Human MAT2A: Cepter, amino acids 1-395 Clone ID 334, lot 00023-148; purchased Cepter clone ID 334, lot 00023-148
Experiment: Phosphate Sensor Fluorescence Assay (Biologic Example B)
Assay type: biochemical
Conditions: MAT2A inhibition
Procedure: The ability of the compound of present disclosure to inhibit MAT2A enzyme was determined using a Phosphate Sensor Fluorescence Assay described below.
Biologic Example B. Phosphate Sensor Fluorescence Assay
MAT2A enzyme is incubated with a test compound in DMSO or DMSO and its substrates (L-methionine and ATP) in a microtiter plate. The enzymatic reaction is stopped by the addition of Working Phosphate Sensor Mixture. The plate is analyzed for fluorescence at 450 nm. The high control (DMSO with enzyme and its substrates) gives high fluorescence which represents no inhibition of enzymatic activity while the low control (DMSO with MAT2A substrates and no enzyme) gives low fluorescence which represents full inhibition of enzymatic activity.
• Human MAT2A: Cepter, amino acids 1-395 Clone ID 334, lot 00023-148 • Tris, pH 7.5: Invitrogen cat #15567-027 • KCl: Ambion cat #AM9640G • MgCl2: Ambion cat #AM9530G • Brij-35: Sigma cat B4184-10ML • DTT: Goldbio cat #DTT100 • BGG: Sigma cat #G5009-25G • PNP: Novus Biologicals cat #NBP1-50872 • 7-MEG: Cayman Chemical cat #15988 • L-Methionine: JTBaker P/N 2085-05 • ATP: Promega P/N V915B • Phosphate Sensor: Invitrogen cat #PV4407 • EDTA: Life Tech cat #15575-038 • Assay plate: 384-well black polypropylene plate: Corning P/N 3573
• Assay Buffer: 50 mM Tris, pH 7.5/50 mM KCl/10 mM MgCl2/0.01% Brij-35/1 mM DTT/0.01% BGG/40 nM PNP/6 uM 7-MEG • MAT2A: 5.8 nM MAT2A (1-395), Cepter, clone ID 334, lot 00023-148 before the addition of Working Phosphate Sensor Mixture • L-methionine: 500 uM before the addition of Working Phosphate Sensor Mixture • ATP: 500 uM before the addition of Working Phosphate Sensor Mixture
For the assay, a mixture of 1 mM L-methionine/1 mM ATP (2× final pre-stopped concentration) in assay buffer; MAT2A (2× final pre-stopped concentration) in Assay Buffer and Working Phosphate Sensor Mixture (1.5 uM Phosphate Sensor/30 mM EDTA in Assay Buffer, which is 3× final concentrations) were prepared. Test compounds or DMSO were added to the appropriate well using a Beckman Coulter Echo 550 acoustic liquid handler. 10 μL/well of Assay Buffer was added to the wells corresponding to the negative control and 10 μL/well of MAT2A was added to all the wells except for those corresponding to the negative control. After incubating the plate at room temperature for 15 minutes, 10 μL/well of the 1 mM L-methionine/1 mM ATP mixture was added to all wells. The plate was centrifuged at 1000 rpm for 1 minute and then incubated at room temperature for 1 hour. 10 μL of the Working Phosphate Sensor Mixture was added to all wells and the plate was centrifuged at 1000 rpm for 1 minute. The plate was read for fluorescence at 450 nm after exciting at 430 nm on a Tecan Spark microplate reader.
Percent inhibition was calculated in Chemical and Biological Information System (CBIS), (ChemInnovation Software Inc.). Curves were fitted by CBIS as % inhibition vs. log [compound concentration] using a 4-parameter inhibition model.
Fit=(A+((B−A)/(1+((C/x)^D))))
Compounds 1.001-1.028 were tested using the procedure described in Bioogical Example A, described above. Compounds 1.029-1.070 were tested using the procedure described in Biological Example B, described above.

[1] = Biological Example B procedure (Compounds 1.029-1.070), 5.8 nM MAT2A, 500 uM L-methionine, 500 uM ATP

T1 sequence (P31153 whole entry, the tested form may be a part): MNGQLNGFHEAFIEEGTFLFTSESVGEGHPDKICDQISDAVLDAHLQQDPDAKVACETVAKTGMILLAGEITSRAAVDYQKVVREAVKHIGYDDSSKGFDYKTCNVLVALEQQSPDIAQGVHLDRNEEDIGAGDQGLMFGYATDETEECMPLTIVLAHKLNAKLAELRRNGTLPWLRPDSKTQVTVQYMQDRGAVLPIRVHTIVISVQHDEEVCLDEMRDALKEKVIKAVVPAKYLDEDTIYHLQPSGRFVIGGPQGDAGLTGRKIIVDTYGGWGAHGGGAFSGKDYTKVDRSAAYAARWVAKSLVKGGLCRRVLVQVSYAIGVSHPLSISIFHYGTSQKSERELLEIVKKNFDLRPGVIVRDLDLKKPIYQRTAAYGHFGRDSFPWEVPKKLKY

Structure (SMILES) | IC50 [1] | IC50 (Biological Example B procedure, printed as a numeric bound, not a class symbol)
CN(C)c1nc(=O)n(Cc2nc[nH]n2)c2cc(C(F)(F)F)ccc12 [1.051, 1-((1H-1,2,4-Triazol-3-yl)methyl)-4-(dimethylamino)-7-(trifluoromethyl)quinazolin-2(1H)-one] | 10 to 200 nM | 
CNc1nc(=O)n(Cc2cncs2)c2cc(C(F)(F)F)ccc12 [1.068, 4-(Methylamino)-1-(thiazol-5-ylmethyl)-7-(trifluoromethyl)quinazolin-2(1H)-one] | 500 to 1000 nM | 
CC[C@@H](c1cnc[nH]1)n1c(=O)nc(N(C)C)c2ccc(C(F)(F)F)cc21 (single isomer, unassigned) [1.042] | 200 to 500 nM | 
CNc1nc(=O)n(Cc2cnco2)c2cc(C(F)(F)F)ccc12 [1.065, 4-(Methylamino)-1-(oxazol-5-ylmethyl)-7-(trifluoromethyl)quinazolin-2(1H)-one] | 500 to 1000 nM | 
C[C@H](c1cnc[nH]1)n1c(=O)nc(N2CCC2)c2ccc(Br)cc21 (single isomer, unassigned) [1.039] | 200 to 500 nM | 
CC(C)N(C)c1nc(=O)n([C@H](C)c2cnc[nH]2)c2cc(C(F)(F)F)ccc12 (single isomer, unassigned) [1.038] | 10 to 200 nM | 
CN(C)c1nc(=O)n(CC2CNC(=O)C2)c2cc(C(F)(F)F)ccc12 (stereo not shown) [1.057, 4-(Dimethylamino)-1-((5-oxopyrrolidin-3-yl)methyl)-7-(trifluoromethyl)quinazolin-2(1H)-one] | 500 to 1000 nM | 
CC(c1cc[nH]n1)n1c(=O)nc(N(C)C)c2ccc(Cl)cc21 (racemic) [1.062, 1-(1-(1H-pyrazol-3-yl)ethyl)-7-chloro-4-(dimethylamino)quinazolin-2(1H)-one] | < 10 nM | 
C[C@H](c1cnc[nH]1)n1c(=O)nc(N(C)C)c2ccc(Br)cc21 (single isomer, unassigned) [1.043] | 10 to 200 nM | 
CN(C)c1nc(=O)n([C@H](c2c[nH]cn2)C(F)F)c2nc(C(F)(F)F)ccc12 (single isomer, unassigned) [1.064] | 200 to 500 nM | 
CN(C)c1nc(=O)n(Cc2cn(C)cn2)c2cc(C(F)(F)F)ccc12 [1.058, 4-(Dimethylamino)-1-((1-methyl-1H-imidazol-4-yl)methyl)-7-(trifluoromethyl)quinazolin-2(1H)-one] | 1000 to 10000 nM | 
C[C@@H](c1nc[nH]n1)n1c(=O)nc(N(C)C)c2ccc(Cl)cc21 (single isomer, unassigned) [1.061] | 500 to 1000 nM | 
CC[C@H](c1cnc[nH]1)n1c(=O)nc(N(C)C)c2ccc(C(F)(F)F)cc21 (single isomer, unassigned) [1.041] | 10 to 200 nM | 
CCN(C)c1nc(=O)n([C@H](C)c2cnc[nH]2)c2cc(C(F)(F)F)ccc12 (single isomer, unassigned) [1.036] | 10 to 200 nM | 
C[C@H](c1cc[nH]n1)n1c(=O)nc(N(C)C)c2ccc(Cl)cc21 (single isomer, unassigned) [1.059] | < 10 nM | 
CN(C)c1nc(=O)n(Cc2ccccn2)c2nc(C(F)(F)F)ccc12 [1.052, 4-(Dimethylamino)-1-(pyridin-2-ylmethyl)-7-(trifluoromethyl)pyrido[2,3-d]pyrimidin-2(1H)-one] | 10 to 200 nM | 
CN(C)c1nc(=O)n(Cc2cccnc2)c2nc(C(F)(F)F)ccc12 [1.053, 4-(Dimethylamino)-1-(pyridin-3-ylmethyl)-7-(trifluoromethyl)pyrido[2,3-d]pyrimidin-2(1H)one] | 1000 to 10000 nM | 
C[C@@H](c1cnc[nH]1)n1c(=O)nc(N(C)C)c2ccc(Cl)cc21 (single isomer, unassigned) [1.048] | 10 to 200 nM | 
C[C@@H](c1cnc[nH]1)n1c(=O)nc(N2CCC2)c2ccc(Br)cc21 (single isomer, unassigned) [1.040] | 10 to 200 nM | 

Structure (SMILES) | IC50 [1] | IC50 (Biological Example B procedure, printed as a numeric bound, not a class symbol)
CCN(C)c1nc(=O)n([C@@H](C)c2cnc[nH]2)c2cc(C(F)(F)F)ccc12 (single isomer, unassigned) [1.035] | 10 to 200 nM | 
C[C@H](c1cnc[nH]1)n1c(=O)nc(N(C)C)c2ccc(Cl)cc21 (single isomer, unassigned) [1.047] | < 10 nM | 
CNc1nc(=O)n(Cc2cscn2)c2cc(C(F)(F)F)ccc12 [1.067, 4-(Methylamino)-1-(thiazol-4-ylmethyl)-7-(trifluoromethyl)quinazolin-2(1H)-one] | 1000 to 10000 nM | 
C[C@H](c1cc[nH]n1)n1c(=O)nc(N)c2ccc(Cl)cc21 (single isomer, unassigned) [1.069] | 10 to 200 nM | 
CNc1nc(=O)n(Cc2cocn2)c2cc(C(F)(F)F)ccc12 [1.066, 4-(Methylamino)-1-(oxazol-4-ylmethyl)-7-(trifluoromethyl)quinazolin-2(1H)-one] | 10 to 200 nM | 
CC(c1c[nH]cn1)n1c(=O)nc(N2CCC2)c2ccc(Br)cc21 (stereo not shown) [1.032, 1-(1-(1H-imidazol-4-yl)ethyl)-4-(azetidin-1-yl)-7-bromoquinazolin-2(1H)-one] | 10 to 200 nM | 
CN(C)c1nc(=O)n(Cc2cncn2C)c2cc(C(F)(F)F)ccc12 [1.055, 4-(dimethylamino)-1-((1-methyl-1H-imidazol-5-yl)methyl)-7-(trifluoromethyl)quinazolin-2(1H)-one] | 200 to 500 nM | 
CN(C)c1nc(=O)n([C@@H](c2c[nH]cn2)C(F)F)c2nc(C(F)(F)F)ccc12 (single isomer, unassigned) [1.063] | 1000 to 10000 nM | 
CNc1nc(=O)n(Cc2cnsc2)c2cc(C(F)(F)F)ccc12 [1.029, 1-(Isothiazol-4-ylmethyl)-4-(methylamino)-7-(trifluoromethyl)quinazolin-2(1H)-one] | 1000 to 10000 nM | 
Cc1ncc(Cn2c(=O)nc(N(C)C)c3ccc(C(F)(F)F)cc32)[nH]1 [1.049, 4-(Dimethylamino)-1-((2-methyl-1H-imidazol-5-yl)methyl)-7-(trifluoromethyl)quinazolin-2(1H)-one] |  | > 10000 nM
CN(C)c1nc(=O)n(C(c2cnc[nH]2)C2CC2)c2cc(C(F)(F)F)ccc12 (stereo not shown) [1.045, 1-(Cyclopropyl(1H-imidazol-5-yl)methyl)-4-(dimethylamino)-7-(trifluoromethyl)quinazolin-2(1H)-one] | 200 to 500 nM | 
C[C@H](c1nc[nH]n1)n1c(=O)nc(N(C)C)c2ccc(Cl)cc21 (single isomer, unassigned) [1.060] | 10 to 200 nM | 
CN(C)c1nc(=O)n(Cc2ccncc2)c2nc(C(F)(F)F)ccc12 [1.054, 4-(Dimethylamino)-1-(pyridin-4-ylmethyl)-7-(trifluoromethyl)pyrido[2,3-d]pyrimidin-2(1H)one] | 1000 to 10000 nM | 
CN(C)c1nc(=O)n(Cc2cnc[nH]2)c2cc(C(F)(F)F)ccc12 [1.030, 1-((1H-Imidazol-5-yl)methyl)-4-(dimethylamino)-7-(trifluoromethyl)quinazolin-2(1H)-one] | 10 to 200 nM | 
CC(c1cnc[nH]1)n1c(=O)nc(N(C)C)c2ccc(C(F)(F)F)nc21 (stereo not shown) [1.046, 1-(1-(1H-Imidazol-5-yl)ethyl)-4-(dimethylamino)-7-(trifluoromethyl)pyrido[2,3-d]pyrimidin-2(1H)-one] | 10 to 200 nM | 
CN(C)c1nc(=O)n(Cc2cnc[nH]2)c2cc(Cl)ccc12 [1.034, 1-((1H-imidazol-5-yl)methyl)-7-chloro-4-(dimethylamino)quinazolin-2(1H)-one] | 200 to 500 nM | 
CC(c1c[nH]cn1)n1c(=O)nc(N(C)C)c2ccc(Br)cc21 (stereo not shown) [1.031, 1-(1-(1H-imidazol-4-yl)ethyl)-7-bromo-4-(dimethylamino)quinazolin-2(1H)-one] | 10 to 200 nM | 
CN(C)c1nc(=O)n(Cc2ccn[nH]2)c2cc(Cl)ccc12 [1.056, 1-((1H-pyrazol-5-yl)methyl)-7-chloro-4-(dimethylamino)quinazolin-2(1H)-one] | 10 to 200 nM | 
